The text below walks through data of patent US20260374750A1, “LIGANDS SPECIFICALLY TARGETING VESICULAR GLUTAMATE TRANSPORTERS FOR SUPER-RESOLUTION IMAGING” (SORBONNE UNIVERSITÉ, priority 2021, published 2026).

The subject of data set [1] is striatum slices. The data set is described as follows: Fluorescent labeling of striatum slices. In kind it is cell-based, mouse. To be noted: 25 μM, 1 h, 37 °C. On the procedure:
The compatibility of the fluorescent compounds of the invention was determined in brain slices from newborns mice, a study model with greater integrity than cell culture. Mice aged 4 to 7 days are decapitated. The brains are removed and then placed in Neurobasal™-A Medium (10888022, ThermoFisher Scientific) enriched with 2% B-27™ Plus (A3582801, ThermoFisher Scientific) and 1% (volume/volume) of a mixture of streptomycin (10 mg/mL)/penicillin (10,000 U/mL). The brains are cut into 500 μm thick slices (McIlwain Tissue Chopper, model TC752) then dissociated from each other. The slices corresponding to the striatum are selected and incubated for one hour in the medium in the presence of 25 μM of fluorescent ligand, or without fluorescent molecule for the controls. Incubations in the presence or absence of the reference VGLUT inhibitor were carried out.
The brain slices were incubated in the presence of each of the compounds according to the invention D04, C07, C05, B09, L8, YL151, G02, F11 (See reference correspondences in Table 1). FIG. 4 illustrates the quantification of fluorescence of striatum slices after incubation in the presence of fluorescent compounds of the invention. […] Acquisitions were carried out using a confocal microscope (×5 objective) and the average fluorescence intensity for each slice was quantified. […]

Data set [2] has as its system isolated rat cortex synaptic vesicles. The data set is described as follows: Confocal and STED observation of isolated synaptic vesicles incubated with fluorescent ligand. To be noted: control wells. On the procedure:
In view of the preliminary results which are obtained, isolated synaptic vesicles are a model of choice in determining the distribution of the transporters VAChT and VGLUT3 at the vesicular level. The major pitfall in the use of this model is the absence of a protocol of use and results regarding their compatibility with super-resolution microscopy. First, the observability of fluorescent labeling in the vesicles was tested, as well as the effect of STED super-resolution microscopy on this model.
The different manipulations were carried out on rat or mouse synaptic vesicles, coming from the striatum or the cortex.
Material and methods: In a manner similar to vesicular reuptake tests, the fluorescent compounds to be studied are diluted in sucrose buffer (TPS 0.32 M) so as to obtain 10 μM of compound in the final observation medium. […]
Isolated rat cortex synaptic vesicles are then incubated in the presence of ATP and the fluorescent ligand G02 at 37 °C then are observed by confocal microscopy as well as super-resolution microscopy (STED). In order to ensure that the observed labeling corresponds to the fluorescent ligands accumulated on the surface or inside the vesicles, control wells were analyzed. No fluorescent signal is detected in wells containing only isolated vesicles (without fluorescent ligand), or only the fluorescent compound (without vesicles).

The subject of data set [3] is glutamatergic synaptic vesicles (VGLUT1). In words: Double labeling of isolated glutamatergic synaptic vesicles (VGLUT1 immunolabeling and fluorescent ligand). To be noted: FIG. 7; confocal and STED. Here is the method: Tests were performed in order to check the compatibility of the novel fluorescent ligands of the invention and a labeling by immunohistochemistry. Indeed, ultimately, combining a labeling of VAChT by immunohistochemistry and of VGLUT3 by a fluorescent ligand would allow obtaining more information on the distribution of these vesicular transporters in the striatum.
FIG. 7 illustrates the glutamatergic vesicular labeling by immunohistochemistry and the fluorescent ligand referenced G02 according to the invention. In particular, isolated glutamatergic synaptic vesicles were double labeled by immunolabeling of VGLUT1 (in red) and the fluorescent ligand G02 (in green). The observations were carried out using confocal microscopy and STED. […] In order to more accurately analyze the spot colocalization, it seems more appropriate to use lower and therefore more separated concentrations of vesicles.

As to `CCOC(=O)c1cc2cc(C#Cc3ccc(-c4ccc(N)cc4)cc3)c(O)cc2oc1=O` [F11, Ethyl-6-((4′-amino-[1,1′-biphenyl]-4-yl)ethynyl)-7-hydroxy-2-oxo-2H-chromene-3-carboxylate], the “difference between ester (F11) and acid (G02) labeling of slices” value in data set [1] was “no significant difference between the compounds G02 and F11”.

With `Nc1ccc(-c2ccc(C#Cc3cc4cc(C(=O)O)c(=O)oc4cc3O)cc2)cc1` [LSP17-1173, 6-((4′-amino-[1,1′-biphenyl]-4-yl)ethynyl)-7-hydroxy-2-oxo-2H-chromene-3-carboxylic Acid], in data set [1], the “difference between ester (F11) and acid (G02) labeling of slices” value was “no significant difference between the compounds G02 and F11”. Besides, in data set [2], the “precipitation in observation medium” value is reported as “does not precipitate in the observation medium”. Also, the “double labeling spots (compatibility with immunohistochemistry)” value in data set [3] was “The obtained spots are clear and resolved”.
